Measurements: ChEMBL document CHEMBL3885881, “DrugMatrix”

Organism: Rattus norvegicus
Experiment: DrugMatrix - Regimen: Daily Repeat
Type: toxicity, organism-based, Sprague-Dawley
Parameters: regimen Daily Repeat, gender Male, age 6-8 weeks
Conditions: in vivo, po, route oral GAVAGE, vehicle 100 % WATER; for ABSOLUTE BASOPHIL / ABSOLUTE EOSINOPHIL / ABSOLUTE LYMPHOCYTE / ABSOLUTE MONOCYTE / ABSOLUTE SEGMENTED NEUTROPHIL / BASOPHIL / EOSINOPHIL / ERYTHROCYTE COUNT / HEMATOCRIT / HEMOGLOBIN / LEUKOCYTE COUNT / LYMPHOCYTE / MEAN CORPUSCULAR HEMOGLOBIN / MEAN CORPUSCULAR HEMOGLOBIN CONCENTRATION / MEAN CORPUSCULAR VOLUME / MONOCYTE / NEUTROPHIL / NUCLEATED RED BLOOD CELLS / PLATELET COUNT: tissue Blood; for ALANINE AMINOTRANSFERASE / ALBUMIN / ALKALINE PHOSPHATASE / ASPARTATE AMINOTRANSFERASE / BLOOD UREA NITROGEN / CARBON DIOXIDE / CHLORIDE / CHOLESTEROL / CREATINE PHOSPHOKINASE / CREATININE / GLUCOSE / LACTATE DEHYDROGENASE / LIPASE / PHOSPHORUS / POTASSIUM / SODIUM / TOTAL BILIRUBIN / TOTAL PROTEIN / URIC ACID: tissue Plasma
[1] = 739 mg/kg, 72 h, dose level High, time 3 day
[2] = 739 mg/kg, 120 h, dose level High, time 5 day
[3] = 0 mg/kg, 72 h, dose level Control, time 3 day
[4] = 0 mg/kg, 120 h, dose level Control, time 5 day
[5] = 58 mg/kg, 72 h, dose level Low, time 3 day
[6] = 58 mg/kg, 120 h, dose level Low, time 5 day

C[C@H]1COc2c(N3CCN(C)CC3)c(F)cc3c(=O)c(C(=O)O)cn1c23.C[C@H]1COc2c(N3CCN(C)CC3)c(F)cc3c(=O)c(C(=O)O)cn1c23.O [LEVOFLOXACIN]
ABSOLUTE BASOPHIL [1]: 0 CELLS/uL
ABSOLUTE EOSINOPHIL [1]: 60.67 CELLS/uL
ABSOLUTE LYMPHOCYTE [1]: 15481 CELLS/uL
ABSOLUTE MONOCYTE [1]: 289.33 CELLS/uL
ABSOLUTE SEGMENTED NEUTROPHIL [1]: 1169 CELLS/uL
BASOPHIL [1]: 0%
EOSINOPHIL [1]: 0.33%
ERYTHROCYTE COUNT [1]: 5.52 x10E6/uL
HEMATOCRIT [1]: 35.23%
HEMOGLOBIN [1]: 13.27 G/DL
LEUKOCYTE COUNT [1]: 17 x10E3/uL
LYMPHOCYTE [1]: 91%
MEAN CORPUSCULAR HEMOGLOBIN [1]: 24.03 pg
MEAN CORPUSCULAR HEMOGLOBIN CONCENTRATION [1]: 37.67 G/DL
MEAN CORPUSCULAR VOLUME [1]: 63.8 fL
MONOCYTE [1]: 1.67%
NEUTROPHIL [1]: 7%
NUCLEATED RED BLOOD CELLS [1]: 0 /100WBC
PLATELET COUNT [1]: 1423.67 x10E3/uL
ALANINE AMINOTRANSFERASE [1]: 46.33 u/L
ALBUMIN [1]: 4.1 G/DL
ALKALINE PHOSPHATASE [1]: 308 u/L
ASPARTATE AMINOTRANSFERASE [1]: 72.67 u/L
BLOOD UREA NITROGEN [1]: 16.33 mg/dL
CARBON DIOXIDE [1]: 26.67 mmol/L
CHLORIDE [1]: 104.33 MEQ/L
CHOLESTEROL [1]: 82.33 mg/dL
CREATINE PHOSPHOKINASE [1]: 201.67 u/L
CREATININE [1]: 0.14 mg/dL
GLUCOSE [1]: 154.33 mg/dL
LACTATE DEHYDROGENASE [1]: 124 u/L
LIPASE [1]: 8.67 u/L
PHOSPHORUS [1]: 11.47 mg/dL
POTASSIUM [1]: 6.3 MEQ/L
SODIUM [1]: 146.37 MEQ/L
TOTAL BILIRUBIN [1]: 0.17 mg/dL
TOTAL PROTEIN [1]: 5.97 G/DL
URIC ACID [1]: 1.7 mg/dL
ABSOLUTE BASOPHIL [2]: 0 CELLS/uL
ABSOLUTE EOSINOPHIL [2]: 0 CELLS/uL
ABSOLUTE LYMPHOCYTE [2]: 15118 CELLS/uL
ABSOLUTE MONOCYTE [2]: 376 CELLS/uL
ABSOLUTE SEGMENTED NEUTROPHIL [2]: 706 CELLS/uL
BASOPHIL [2]: 0%
EOSINOPHIL [2]: 0%
ERYTHROCYTE COUNT [2]: 6.32 x10E6/uL
HEMATOCRIT [2]: 38.53%
HEMOGLOBIN [2]: 14.33 G/DL
LEUKOCYTE COUNT [2]: 16.2 x10E3/uL
LYMPHOCYTE [2]: 93.33%
MEAN CORPUSCULAR HEMOGLOBIN [2]: 22.7 pg
MEAN CORPUSCULAR HEMOGLOBIN CONCENTRATION [2]: 37.2 G/DL
MEAN CORPUSCULAR VOLUME [2]: 61.03 fL
MONOCYTE [2]: 2.33%
NEUTROPHIL [2]: 4.33%
NUCLEATED RED BLOOD CELLS [2]: 0.33 /100WBC
PLATELET COUNT [2]: 1446 x10E3/uL
ALANINE AMINOTRANSFERASE [2]: 51.67 u/L
ALBUMIN [2]: 4.27 G/DL
ALKALINE PHOSPHATASE [2]: 400 u/L
ASPARTATE AMINOTRANSFERASE [2]: 69.33 u/L
BLOOD UREA NITROGEN [2]: 16.33 mg/dL
CARBON DIOXIDE [2]: 25.67 mmol/L
CHLORIDE [2]: 105.33 MEQ/L
CHOLESTEROL [2]: 69.67 mg/dL
CREATINE PHOSPHOKINASE [2]: 212 u/L
CREATININE [2]: 0.19 mg/dL
GLUCOSE [2]: 191.33 mg/dL
LACTATE DEHYDROGENASE [2]: 130.33 u/L
LIPASE [2]: 9 u/L
PHOSPHORUS [2]: 14.27 mg/dL
POTASSIUM [2]: 6.6 MEQ/L
SODIUM [2]: 147.87 MEQ/L
TOTAL BILIRUBIN [2]: 0.17 mg/dL
TOTAL PROTEIN [2]: 6.23 G/DL
URIC ACID [2]: 2.37 mg/dL

C#Cc1cccc(Nc2ncnc3cc(OCCOC)c(OCCOC)cc23)c1 [ERLOTINIB]
ERYTHROCYTE COUNT [3]: 6.09 x10E6/uL
HEMATOCRIT [3]: 42.62%
HEMOGLOBIN [3]: 13.07 G/DL
LEUKOCYTE COUNT [3]: 13.95 x10E3/uL
MEAN CORPUSCULAR HEMOGLOBIN [3]: 21.47 pg
MEAN CORPUSCULAR HEMOGLOBIN CONCENTRATION [3]: 30.62 G/DL
MEAN CORPUSCULAR VOLUME [3]: 70.05 fL
ALKALINE PHOSPHATASE [3]: 369 u/L
ASPARTATE AMINOTRANSFERASE [3]: 86.17 u/L
BLOOD UREA NITROGEN [3]: 16.33 mg/dL
CARBON DIOXIDE [3]: 37.33 mmol/L
CHLORIDE [3]: 104.83 MEQ/L
CHOLESTEROL [3]: 79.83 mg/dL
CREATINE PHOSPHOKINASE [3]: 392.83 u/L
CREATININE [3]: 0.68 mg/dL
GLUCOSE [3]: 153.33 mg/dL
LACTATE DEHYDROGENASE [3]: 426.17 u/L
LIPASE [3]: 11.67 u/L
PHOSPHORUS [3]: 11 mg/dL
POTASSIUM [3]: 6.72 MEQ/L
SODIUM [3]: 146.67 MEQ/L
TOTAL BILIRUBIN [3]: 0.55 mg/dL
TOTAL PROTEIN [3]: 6.32 G/DL
URIC ACID [3]: 0.0167 mg/dL
ERYTHROCYTE COUNT [4]: 6.93 x10E6/uL
HEMATOCRIT [4]: 46.82%
HEMOGLOBIN [4]: 14.23 G/DL
LEUKOCYTE COUNT [4]: 13.43 x10E3/uL
MEAN CORPUSCULAR HEMOGLOBIN [4]: 20.55 pg
MEAN CORPUSCULAR HEMOGLOBIN CONCENTRATION [4]: 30.38 G/DL
MEAN CORPUSCULAR VOLUME [4]: 67.62 fL
ALKALINE PHOSPHATASE [4]: 417.83 u/L
ASPARTATE AMINOTRANSFERASE [4]: 83 u/L
BLOOD UREA NITROGEN [4]: 15.33 mg/dL
CARBON DIOXIDE [4]: 38.83 mmol/L
CHLORIDE [4]: 98.17 MEQ/L
CHOLESTEROL [4]: 66.83 mg/dL
CREATINE PHOSPHOKINASE [4]: 383.17 u/L
CREATININE [4]: 0.72 mg/dL
GLUCOSE [4]: 156.5 mg/dL
LACTATE DEHYDROGENASE [4]: 519.67 u/L
LIPASE [4]: 4.83 u/L
PHOSPHORUS [4]: 11.07 mg/dL
POTASSIUM [4]: 6.03 MEQ/L
SODIUM [4]: 138 MEQ/L
TOTAL BILIRUBIN [4]: 0.55 mg/dL
TOTAL PROTEIN [4]: 6.3 G/DL
URIC ACID [4]: 0.0833 mg/dL
ERYTHROCYTE COUNT [5]: 7.23 x10E6/uL
HEMATOCRIT [5]: 47.6%
HEMOGLOBIN [5]: 14.6 G/DL
LEUKOCYTE COUNT [5]: 17.02 x10E3/uL
MEAN CORPUSCULAR HEMOGLOBIN [5]: 20.2 pg
MEAN CORPUSCULAR HEMOGLOBIN CONCENTRATION [5]: 30.77 G/DL
MEAN CORPUSCULAR VOLUME [5]: 265.73 fL
ALKALINE PHOSPHATASE [5]: 184.67 u/L
ASPARTATE AMINOTRANSFERASE [5]: 86.33 u/L
BLOOD UREA NITROGEN [5]: 16 mg/dL
CARBON DIOXIDE [5]: 39 mmol/L
CHLORIDE [5]: 107.67 MEQ/L
CHOLESTEROL [5]: 93.67 mg/dL
CREATINE PHOSPHOKINASE [5]: 293 u/L
CREATININE [5]: 0.73 mg/dL
GLUCOSE [5]: 141.33 mg/dL
LACTATE DEHYDROGENASE [5]: 441.67 u/L
LIPASE [5]: 21.33 u/L
PHOSPHORUS [5]: 10 mg/dL
POTASSIUM [5]: 6.7 MEQ/L
SODIUM [5]: 148.67 MEQ/L
TOTAL BILIRUBIN [5]: 0.73 mg/dL
TOTAL PROTEIN [5]: 5.13 G/DL
URIC ACID [5]: 0 mg/dL
ERYTHROCYTE COUNT [6]: 7.1 x10E6/uL
HEMATOCRIT [6]: 46.07%
HEMOGLOBIN [6]: 13.83 G/DL
LEUKOCYTE COUNT [6]: 18.86 x10E3/uL
MEAN CORPUSCULAR HEMOGLOBIN [6]: 19.47 pg
MEAN CORPUSCULAR HEMOGLOBIN CONCENTRATION [6]: 29.97 G/DL
MEAN CORPUSCULAR VOLUME [6]: 64.9 fL
ALKALINE PHOSPHATASE [6]: 222 u/L
ASPARTATE AMINOTRANSFERASE [6]: 105.33 u/L
BLOOD UREA NITROGEN [6]: 14.67 mg/dL
CARBON DIOXIDE [6]: 38.67 mmol/L
CHLORIDE [6]: 100.33 MEQ/L
CHOLESTEROL [6]: 81.33 mg/dL
CREATINE PHOSPHOKINASE [6]: 332 u/L
CREATININE [6]: 0.73 mg/dL
GLUCOSE [6]: 135 mg/dL
LACTATE DEHYDROGENASE [6]: 477.67 u/L
LIPASE [6]: 16.67 u/L
PHOSPHORUS [6]: 11.53 mg/dL
POTASSIUM [6]: 6.07 MEQ/L
SODIUM [6]: 141 MEQ/L
TOTAL BILIRUBIN [6]: 0.5 mg/dL
TOTAL PROTEIN [6]: 5.57 G/DL
URIC ACID [6]: 0.1 mg/dL
